Measurements as given in ChEMBL document CHEMBL6114933, “Discovery of 3-acyl-2-anilino-1,4-dihydroquinolin-4-one derivatives as potential inhibitors of methicillin-resistant Staphylococcus aureus” (Bioorg Med Chem Lett, 2025).
In brackets after ≈: the same amount, converted by molar mass. Blank lines part the entries; values can stand above or below the compound they belong to.

What was measured:
[1] = Cytotoxicity against human HepG2 cells; format: toxicity, cell-based
Staphylococcus aureus [2] = assay: Ex vivo antibacterial activity against methicillin-resistant Staphylococcus aureus assessed as inhibition of bacterial growth by cell infection model; format: functional
Staphylococcus aureus [3] = assay: Antibacterial activity against drug-resistant Staphylococcus aureus USA300 JE2 assessed as inhibition of bacterial growth; format: functional
Staphylococcus aureus [4] = assay: Antibacterial activity against drug-sensitive Staphylococcus aureus ATCC25923 assessed as inhibition of bacterial growth; format: functional
[5] = Oral bioavailability in rat at 5 mg/kg; format: ADME, organism-based; details: in vivo
[6] = Cytotoxicity against African green monkey Vero cells; format: toxicity, cell-based, Chlorocebus sabaeus
[7] = AUC (0 to infinity) in rat at 2 mg/kg, iv; format: ADME, organism-based; details: in vivo
[8] = target: Voltage-gated inwardly rectifying potassium channel KCNH2 (Homo sapiens, UniProt Q12809); assay: Inhibition of hERG by binding assay; format: toxicity
Voltage-gated inwardly rectifying potassium channel KCNH2, sequence (Q12809 whole entry): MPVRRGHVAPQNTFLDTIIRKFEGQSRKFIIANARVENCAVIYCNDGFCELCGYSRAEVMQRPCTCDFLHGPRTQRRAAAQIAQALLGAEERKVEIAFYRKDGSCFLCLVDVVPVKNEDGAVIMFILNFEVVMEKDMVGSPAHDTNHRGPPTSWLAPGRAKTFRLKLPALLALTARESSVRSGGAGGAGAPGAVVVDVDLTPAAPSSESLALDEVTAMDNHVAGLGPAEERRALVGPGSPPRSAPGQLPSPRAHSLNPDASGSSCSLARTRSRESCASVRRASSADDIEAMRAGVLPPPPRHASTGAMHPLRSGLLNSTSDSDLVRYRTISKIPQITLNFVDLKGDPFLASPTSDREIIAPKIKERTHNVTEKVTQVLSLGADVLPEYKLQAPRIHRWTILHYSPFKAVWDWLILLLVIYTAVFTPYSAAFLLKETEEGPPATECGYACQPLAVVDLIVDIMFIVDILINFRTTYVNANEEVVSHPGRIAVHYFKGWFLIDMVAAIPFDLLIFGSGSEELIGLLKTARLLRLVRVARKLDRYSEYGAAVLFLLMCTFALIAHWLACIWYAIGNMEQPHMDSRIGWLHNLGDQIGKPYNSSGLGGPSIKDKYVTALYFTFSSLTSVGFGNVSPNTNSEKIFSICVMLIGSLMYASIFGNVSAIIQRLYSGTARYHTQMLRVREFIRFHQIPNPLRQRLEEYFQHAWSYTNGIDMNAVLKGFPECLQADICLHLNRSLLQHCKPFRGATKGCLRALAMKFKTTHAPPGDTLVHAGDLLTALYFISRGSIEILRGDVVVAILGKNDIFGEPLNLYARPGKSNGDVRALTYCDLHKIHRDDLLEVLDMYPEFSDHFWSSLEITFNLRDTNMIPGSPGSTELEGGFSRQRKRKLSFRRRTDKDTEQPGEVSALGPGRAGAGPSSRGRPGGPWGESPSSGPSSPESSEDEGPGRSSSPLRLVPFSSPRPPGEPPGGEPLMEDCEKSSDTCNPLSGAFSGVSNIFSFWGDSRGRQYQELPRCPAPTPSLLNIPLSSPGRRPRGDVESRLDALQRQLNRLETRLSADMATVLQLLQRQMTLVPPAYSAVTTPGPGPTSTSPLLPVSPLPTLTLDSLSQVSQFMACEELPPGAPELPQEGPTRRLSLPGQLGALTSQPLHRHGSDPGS

[9] = AUC(0 to 24 hrs) in rat at 2 mg/kg, iv; format: ADME, organism-based; details: in vivo
[10] = Cmax in rat at 5 mg/kg, po or 2 mg/kg, iv; format: ADME, organism-based; details: in vivo
[11] = Clearance in rat at 2 mg/kg, iv; format: ADME, organism-based; details: in vivo
[12] = Cytotoxicity against mouse L929 cells; format: toxicity, cell-based
[13] = Cytotoxicity against CHO-K1 cells; format: toxicity, cell-based, Cricetulus griseus; details: Chinese hamster
[14] = Metabolic stability in human liver microsomes assessed as parent compound remaining measured after 30 mins; format: ADME, Microsome; details: read-out: Stability
[15] = Metabolic stability in mouse liver microsomes parent compound remaining measured after 30 mins; format: ADME, Microsome; details: read-out: Stability
[16] = Cytotoxicity against HFL1 cells; format: toxicity, cell-based; details: human
[17] = Metabolic stability in rat liver microsomes assessed as parent compound remaining measured after 30 mins; format: ADME, Microsome; details: read-out: Stability
[18] = Half life in rat at 2 mg/kg, iv; format: ADME, organism-based; details: in vivo
[19] = Cytotoxicity against mouse NIH3T3 cells; format: toxicity, cell-based

SMILES: CC(C)C(=O)c1c(Nc2ccc(Cl)cc2Cl)[nH]c2c(F)cc(F)cc2c1=O
IC50 [1]: 39 µM | MIC50 (Staphylococcus aureus [2]): 1.45 µM (≈ 0.596 µg/mL) | MIC50 (Staphylococcus aureus [3]): 0.19 µM (≈ 0.0781 µg/mL) | MIC50 (Staphylococcus aureus [4]): 0.2 µM (≈ 0.0822 µg/mL)

SMILES: CC(=O)c1c(Nc2ccc(F)cc2F)[nH]c2c(F)cc(F)cc2c1=O
MIC50 (Staphylococcus aureus [2]): 9.48 µM (≈ 3.32 µg/mL) | MIC50 (Staphylococcus aureus [3]): 3.84 µM (≈ 1.35 µg/mL) | MIC50 (Staphylococcus aureus [4]): 4.41 µM (≈ 1.54 µg/mL)

SMILES: CC(C)C(=O)c1c(Nc2ccc(F)cc2F)[nH]c2c(F)cc(F)cc2c1=O
MIC50 (Staphylococcus aureus [2]): 10 µM (≈ 3.79 µg/mL) | MIC50 (Staphylococcus aureus [3]): 1.27 µM (≈ 0.48 µg/mL) | MIC50 (Staphylococcus aureus [4]): 1.36 µM (≈ 0.515 µg/mL)

SMILES: CC(=O)c1c(Nc2ccc(Cl)cc2Cl)[nH]c2c(F)cc(F)cc2c1=O
MIC50 (Staphylococcus aureus [2]): 10.1 µM (≈ 3.88 µg/mL) | MIC50 (Staphylococcus aureus [3]): 0.39 µM (≈ 0.149 µg/mL) | MIC50 (Staphylococcus aureus [4]): 0.41 µM (≈ 0.157 µg/mL)

SMILES: CC(=O)c1c(N2CCOCC2)[nH]c2c(F)cc(F)cc2c1=O
MIC50 (Staphylococcus aureus [3]): > 20 µM | MIC50 (Staphylococcus aureus [4]): > 20 µM

SMILES: CC(=O)c1c(Nc2ccc(Cl)cc2Cl)[nH]c2c(Cl)cc(Cl)c(Cl)c2c1=O
MIC50 (Staphylococcus aureus [2]): 34.8 µM (≈ 15.7 µg/mL) | MIC50 (Staphylococcus aureus [3]): 0.27 µM (≈ 0.122 µg/mL) | MIC50 (Staphylococcus aureus [4]): 0.28 µM (≈ 0.126 µg/mL)

SMILES: CC(=O)c1c(Nc2ccc(Cl)cc2Cl)[nH]c2c(Cl)ccc(C(F)(F)F)c2c1=O
MIC50 (Staphylococcus aureus [2]): 15.2 µM (≈ 6.83 µg/mL) | MIC50 (Staphylococcus aureus [3]): 0.41 µM (≈ 0.184 µg/mL) | MIC50 (Staphylococcus aureus [4]): 0.44 µM (≈ 0.198 µg/mL)

SMILES: CC(=O)c1c(N2CCCCC2)[nH]c2c(F)cc(F)cc2c1=O
MIC50 (Staphylococcus aureus [3]): > 20 µM | MIC50 (Staphylococcus aureus [4]): > 20 µM

SMILES: CN[C@H](CC(C)C)C(=O)N[C@H]1C(=O)N[C@@H](CC(N)=O)C(=O)N[C@H]2C(=O)N[C@H]3C(=O)N[C@H](C(=O)N[C@H](C(=O)O)c4cc(O)cc(O)c4-c4cc3ccc4O)[C@H](O)c3ccc(c(Cl)c3)Oc3cc2cc(c3O[C@@H]2O[C@H](CO)[C@@H](O)[C@H](O)[C@H]2O[C@H]2C[C@](C)(N)[C@H](O)[C@H](C)O2)Oc2ccc(cc2Cl)[C@H]1O [VANCOMYCIN]
MIC50 (Staphylococcus aureus [4]): 1.97 µM (≈ 2.86 µg/mL)

SMILES: CC(=O)c1c(NCc2ccc(F)cc2F)[nH]c2c(F)cc(F)cc2c1=O
MIC50 (Staphylococcus aureus [3]): > 20 µM | MIC50 (Staphylococcus aureus [4]): > 20 µM

SMILES: CC(=O)c1c(Nc2ccc(F)c(F)c2F)[nH]c2c(F)cc(F)cc2c1=O
MIC50 (Staphylococcus aureus [2]): 6.79 µM (≈ 2.5 µg/mL) | MIC50 (Staphylococcus aureus [3]): 0.95 µM (≈ 0.35 µg/mL) | MIC50 (Staphylococcus aureus [4]): 1.11 µM (≈ 0.409 µg/mL)

SMILES: CCN(CC)CCCC(C)Nc1[nH]c2c(F)cc(F)cc2c(=O)c1C(C)=O (centres undefined)
MIC50 (Staphylococcus aureus [3]): > 20 µM | MIC50 (Staphylococcus aureus [4]): > 20 µM

SMILES: CC(=O)c1c(NCc2ccc(F)cc2)[nH]c2c(F)cc(F)cc2c1=O
MIC50 (Staphylococcus aureus [3]): > 20 µM | MIC50 (Staphylococcus aureus [4]): > 20 µM

SMILES: CC(C)C(=O)c1c(Nc2ccc(F)c(F)c2F)[nH]c2c(F)cc(F)cc2c1=O
bioavailability [5]: > 55.8% | IC50 [6]: 86.1 µM | AUC [7]: 28.9 uM.hr/ml | IC50 [1]: 63.7 µM | IC50 [8]: > 100 µM | AUC [9]: 28.3 uM.hr/ml | MIC50 (Staphylococcus aureus [2]): 0.71 µM (≈ 0.281 µg/mL) | MIC50 (Staphylococcus aureus [3]): 0.2 µM (≈ 0.0793 µg/mL) | MIC50 (Staphylococcus aureus [4]): 0.18 µM (≈ 0.0713 µg/mL) | Cmax [10]: 2.32 uM/ml | CL ([11]; iv, 2 mg/kg): 1.2 mL/min/kg

MIC50 (Staphylococcus aureus [4]): 0.74 µM (≈ 0.543 µg/mL)
SMILES: CC[C@H]1OC(=O)[C@H](C)[C@@H](O[C@H]2C[C@@](C)(OC)[C@@H](O)[C@H](C)O2)[C@H](C)[C@@H](O[C@@H]2O[C@H](C)C[C@H](N(C)C)[C@H]2O)[C@](C)(O)C[C@@H](C)C(=O)[C@H](C)[C@@H](O)[C@]1(C)O [ERYTHROMYCIN]

SMILES: CC(=O)c1c(Nc2cc(F)cc(F)c2)[nH]c2c(F)cc(F)cc2c1=O
MIC50 (Staphylococcus aureus [3]): > 20 µM | MIC50 (Staphylococcus aureus [4]): > 20 µM

SMILES: CC(C)C(=O)c1c(Nc2ccc(F)cc2F)[nH]c2c(Cl)cc(Cl)c(Cl)c2c1=O
bioavailability [5]: > 99.9% | IC50 [6]: 61.3 µM | IC50 [12]: > 100 µM | IC50 [13]: 4.9 µM | AUC [7]: 175.71 uM.hr/ml | IC50 [1]: > 256 µM | IC50 [8]: 60 µM | AUC [9]: 31.97 uM.hr/ml | remaining at 0.5 h [14]: 95.6% | remaining at 0.5 h [15]: 68.1% | IC50 [16]: 10.6 µM | remaining at 0.5 h [17]: 81.9% | MIC50 (Staphylococcus aureus [2]): 3.9 µM (≈ 1.74 µg/mL) | MIC50 (Staphylococcus aureus [3]): 0.06 µM (≈ 0.0267 µg/mL) | half-life [18]: 25.6 h | MIC50 (Staphylococcus aureus [4]): 0.05 µM (≈ 0.0223 µg/mL) | IC50 [19]: 67.5 µM | Cmax [10]: 5.91 uM/ml | clearance [11]: 0.5 mL/min/kg

SMILES: COc1ccc(CNc2[nH]c3c(F)cc(F)cc3c(=O)c2C(C)=O)cc1
MIC50 (Staphylococcus aureus [3]): > 20 µM | MIC50 (Staphylococcus aureus [4]): > 20 µM

SMILES: COc1ccc(Nc2[nH]c3c(F)cc(F)cc3c(=O)c2C(C)=O)cc1
MIC50 (Staphylococcus aureus [3]): > 20 µM | MIC50 (Staphylococcus aureus [4]): > 20 µM

SMILES: CC(C)C(=O)c1c(Nc2ccc(F)c(F)c2F)[nH]c2c(Cl)cc(Cl)c(Cl)c2c1=O
IC50 [1]: 31.2 µM | MIC50 (Staphylococcus aureus [2]): 0.57 µM (≈ 0.264 µg/mL) | MIC50 (Staphylococcus aureus [3]): 0.05 µM (≈ 0.0232 µg/mL) | MIC50 (Staphylococcus aureus [4]): 0.04 µM (≈ 0.0185 µg/mL)
